# Article PMC6312359, “Diisopropylphenyl-imidazole (DII): A new compound that exerts anthelmintic activity through novel molecular mechanisms” (PLoS Neglected Tropical Diseases, 2018)
# “And” between values parts separate entries of the source, which are not always exact repeats. Equal values may be shown once. Read-outs that look alike come from different tables or passages of the source.
# Experiments:
# [1] = test system: C. elegans; parameters: method as in PMID 21195075, PMID 23869246; conditions: 24 h, even at millimolar concentrations, ref [39], [41]; cited from earlier work
# [2] = test system: C. elegans; assay: Screening imidazole compounds: worm survival; assay type: in vivo, Caenorhabditis elegans; conditions: 150 μg/ml, 72 h, 20°C, young adult wild-type worms, liquid medium (S-Basal) with E. coli OP50
# Experimental: 100–150 young adult wild-type worms were exposed to these compounds (150 μg/ml) in liquid medium (S-Basal) containing E. coli OP50. Micromolar concentrations for each compound are: 487 μM for 1, 428 μM for 2, 410 μM for 3, 375 μM for 4, 789 μM for 5, 735 μM for 6, 389 μM for 7, 319 μM for 8, 263 μM for 9, 806 μM for 10 and 657 μM for 11. Compounds were dissolved in water or DMSO according to their solubility. After 72 h, animal survival was analyzed. An animal was considered dead if it made no movement in response to gentle prodding with a worm pick. At least three independent experiments were analyzed.
# We exposed 100–150 young adult worms to these compounds in liquid medium (S-Basal) containing the bacteria E. coli OP50 as a food source. After 72 h at 20°C, we analyzed worm survival (Fig 1B). […] The drug concentration chosen for this screening was 150 μg/ml, which is similar to those used in other screening studies. The corresponding molar concentration for each compound is detailed in Materials and Methods. Depending on their solubility properties, the compounds were dissolved either in water or DMSO (up to 0.75% final concentration).
# [3] = test system: E. coli OP50; assay: OP50 growth in screening wells (qualitative); assay type: cell-based, Escherichia coli; conditions: 150 μg/ml, qualitative observation
# From the text: During the screening assays, we qualitatively noticed that OP50 growth was inhibited in wells containing MI. This effect was not observed with DII. To quantify this observation, we determined minimum inhibitory concentration (MIC) and minimum bactericidal concentration (MBC) of both compounds in E. coli cultures (Fig 2A). […] Similar values were obtained when we performed these assays on S. aureus, a Gram-positive bacteria (Fig 2A). […] As we are here screening for specific anthelmintic activity, we restricted our further analysis to compounds that appear to exert nematicidal action without obvious lethal effects on other organisms. Therefore, we focused our studies only on DII, relegating the evaluation of MI as a potential anthelmintic drug.
# [4] = test system: Escherichia coli ATCC 25922; assay: Minimum inhibitory and bactericidal concentrations, microdilution; assay type: cell-based; conditions: 24 h at 37°C; for MBC / MIC: Escherichia coli, ATCC25922
# Experimental: (§1) The strains used in this study were Escherichia coli ATCC 25922 and Staphylococcus aureus ATCC 25923, kindly provided by Dr. Ziegler (Bacillus Genetic Stock Center, The Ohio State University). Stocks were stored in Mueller Hinton Broth (MHB, Biokar Diagnostics, France) supplemented with glycerol 20% at -70°C. Before running each test, the strains were incubated for 48 h at 37°C in MHB. Finally, the bacterial strains were sub-cultured in MHB at 37°C for 24 h. The solutions of antimicrobial agents and imidazolium salts were prepared following the Clinical and Laboratory Standards Institute (CLSI) guidelines for determination of Minimum Inhibitory Concentrations by the microdilution method (CLSI 2009). […] Cultures were incubated as described above and adjusted to OD625nm ~ 0.08–0.13 by the direct colony suspension method in saline water and finally adjusted to 2–8 10^5 CFU/ml by diluting 1:150 in MHB before testing. A volume of 100 μl of each sample dilution in saline water was transferred to the microplate well. Finally, an equal volume of the inoculum was added. The MIC was the lowest concentration at which there was no visible growth when compared with controls after 24 h at 37°C. To assess the minimum bactericidal concentration (MBC), 20 μl aliquots were taken from the wells where no visible growth was observed, seeded on petri dishes and covered with MH agar (MHA) at 45°C. The compounds were considered bactericidal at the concentration at which no visible colony was observed on the plate after 24 h at 37°C. All conditions were run at least in duplicate. The results were obtained from at least 3 independent experiments.
# [5] = test system: Staphylococcus aureus ATCC 25923; assay: as above; assay type: cell-based; conditions: ATCC25923, 24 h at 37°C; for MBC: read-out: MBC S. aureus; for MIC: read-out: MIC S. aureus
# Experimental: as §1
# [6] = test system: C. elegans; assay: Worm cut preparation paralysis; assay type: in vivo, Caenorhabditis elegans; conditions: 10 min; DII 600 μM, levamisole 10 μM
# Experimental: Cutworm assays were performed as previously described with slight modifications. Briefly, synchronized young adult animals were mounted in a glass microscope slide containing Artificial Perienteric Fluid (APF) (67 mM NaCl, 67 mM NaCH3COOH, 3 mM KCl, 15.7 mM MgCl2, 3 mM CaCl2 and 5 mM Tris, pH 7.6). 10 animals were severed between the middle and tail, approximately two-thirds from the anterior end. Worms were subsequently transferred to a multi-well plate containing APF or drug-APF and paralysis was evaluated after 10 minutes. All experiments were performed at least three times.
# [7] = test system: C. elegans; assay: Body length measurements; assay type: in vivo, Caenorhabditis elegans; conditions: 600 μM, 2 h
# Experimental: Vehicle (0.75% DMSO) was used as a control. After 2 h, images were acquired and body length was measured using FIJI-ImageJ software. At least three independent experiments were analyzed.
# [8] = test system: C. elegans; assay: Acute paralysis assays; assay type: in vivo, Caenorhabditis elegans
# Experimental: Acute paralysis assays were carried out in microtiter plates containing the drug dissolved in M9 buffer. […] Each drug concentration was tested in two wells (containing 30 animals each) within a single experiment. […] The experiment was independently repeated at least three times.
# [9] = test system: C. elegans; assay: Egg-laying assays; assay type: in vivo, Caenorhabditis elegans; conditions: gravid worms
# Experimental: Age-synchronized gravid worms were transferred to solid NGM plates containing different drug concentrations (100–300 μM). Each concentration was evaluated in triplicate and DMSO was used as a control. After 1 h, the number of laid eggs per worm was counted. This experiment was independently repeated three times.
compound,measurement,setting,value
CCCSc1ccc2nc(NC(=O)OC)[nH]c2c1 [albendazole],C. elegans death,[1],less than 25%
CC(=O)Oc1ccccc1C(=O)Nc1ncc([N+](=O)[O-])s1 [nitazoxanide],C. elegans death,[1],less than 25%
ivermectin,C. elegans death,[1],less than 25%
"Cc1cc(C)c(-n2ccnc2)c(C)c1 [Compound 10, mesityl-imidazole]",worm death,[2],100%
same,OP50 growth in screening wells,[3],inhibited
same,MIC E. coli,[4]; listed as MI (10),128 µg/mL
same,MBC,[4],> 256 µg/mL
same,MIC,[4],128 µg/mL and 680 µM
same,MBC,[5],> 256 µg/mL
same,MIC,[5],128 µg/mL
CN1CCCN=C1/C=C/c1cccs1 [pyrantel],C. elegans death,[1],less than 25%
"O=C(O)c1cn(C2CC2)c2cc(N3CCNCC3)c(F)cc2c1=O [cipro., ciprofloxacin, reference compound]",MBC,[4],1 µg/mL
same,MIC,[4],0.25 µg/mL
same,MBC,[5],1 µg/mL
same,MIC,[5],0.5 µg/mL
c1ccc([C@H]2CN3CCSC3=N2)cc1 [levamisole],paralysis in cut specimens,[6],paralysis is achieved at very low levamisole concentrations
same,body length,[7],worm shrinkage
same,paralysis in CB407 unc-49(e407)III hypersensitive strain,"[8]; 100 μM, 10 min",hypersensitive
same,paralyzed animals,"[8]; 600 μM, 10 min",100%
same,EC50,"[8]; 10 min, L4 wild-type, Fig 4B, read-out: EC50 acute paralysis",63.6 µM
same,EC50,"[8]; Caenorhabditis elegans, 10 min, Fig 4E black circle (probably levamisole alone), 10 min, read-out: EC50 levamisole paralysis",60 ± 1.12 µM
same,EC50,"[8]; Caenorhabditis elegans, 10 min, Fig 4E dark pink triangle up (constant DII, probably 100 μM), 10 min, read-out: EC50 levamisole paralysis in presence of DII",66 ± 1.15 µM
same,EC50,"[8]; Caenorhabditis elegans, 10 min, Fig 4E light pink triangle down (constant DII, probably 200 μM), 10 min, read-out: EC50 levamisole paralysis in presence of DII",62.2 ± 1.14 µM
same,EC50,"[8]; Caenorhabditis elegans, 10 min, L4 wild-type, Fig 4B, read-out: EC50 acute paralysis",63.6 ± 1.1 µM
same,EC50,"[8]; Caenorhabditis elegans, 24 h, S5D Fig pink triangle (probably DII 100 μM for 24 h and during assay), read-out: EC50 levamisole paralysis after DII pre-exposure",82.2 ± 1.39 µM
same,EC50,"[8]; Caenorhabditis elegans, S5D Fig black circle (probably control without DII), read-out: EC50 levamisole paralysis",82.4 ± 1.23 µM
same,"laid eggs in 1 h, fold more than controls",[9]; 100 μM,3.8 fold
same,"laid eggs in 1 h, fold more than controls",[9]; 300 μM,3.2 fold
